Data published in patent US20230293599A1, “BACTERIAL COMPOSITIONS WITH ANTI-INFLAMMATORY ACTIVITY” (Universiteit Gent, priority 2020, published 2023).
Read-outs that look alike come from different tables or passages of the source.

Key:
R. gilardii = assay: Biolog Phenotype Microarray PM1-2 growth on carbon sources; format: cell-based, Roseomonas gilardii
Protocol: (§1) Using Phenotype Microarray (PM) panels (Biolog), the influence of 190 carbon sources on the growth of the potential probiotic species R. mucilaginosa, R. dentocariosa, R. gilardii, G. haemolysans, and common respiratory pathogens P. aeruginosa, and S. aureus was determined. PM1 and PM2 panels (Biolog) were inoculated according to the manufacturer's instructions. Growth curves were generated for 35 hours by measuring the absorbance at 590 nm using an EnVision (Perkin Elmer) plate reader.

P. aeruginosa = assay: as above; format: cell-based, Pseudomonas aeruginosa
In short: (§2)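 Growth on 190 carbon sources in Biolog PM1 and PM2 panels, inoculated per manufacturer's protocol. Growth curves followed for 35 hours by absorbance at 590 nm.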

S. aureus = format: cell-based, Staphylococcus aureus
In short: as §2

G. haemolysans = assay: Biolog Phenotype Microarray PM1-2 growth on carbon sources; format: cell-based, Gemella haemolysans
Protocol: as §1

R. dentocariosa = assay: as above; format: cell-based, Rothia dentocariosa
Protocol: as §1

R. mucilaginosa = assay: as above; format: cell-based, Rothia mucilaginosa
Protocol: as §1

NF-κB pathway = assay: NF-κB-luciferase reporter 3-D A549 cells stimulated with LPS (Example 2); format: cell-based, human; details: acetate at 28.3 mM and 18.0 mM, 4-hour incubation (FIG. 10)
Protocol: 3-D cells of the human adenocarcinoma alveolar lung epithelial cell line A549 transfected with an NF-κB-luciferase reporter (BPS Bioscience, San Diego, CA) were prepared as described previously for A549 cells (Crabbé et al., 2016; Barrila et al., 2010; Harris et al. 2007; Chen et a., 2019). Briefly, a monolayer of NF-κB-A549 cells was grown in T75 cell culture flasks containing GTSF-2 medium (HyClone, Logan, UT) supplemented with 1.5 g/L sodium bicarbonate (Sigma-Aldrich), 10% fetal bovine serum (FBS, Life technologies), 2.5 mg/L insulin transferring sodium selenite (Lonza) and 1% penicillin-streptomycin (pen-strep, Life Technologies) at 37° C. under 5% CO2. At confluence, the cells were seeded in the Rotating Wall Vessel (RWV) bioreactor with type-1 collagen coated dextran beads at a cell to bead ratio of 2:1 and were cultured for 11 to 14 days. […]
The NF-κB pathway was activated in 3-D NF-κB -A549 cells by 4 hours stimulation with LPS (100 μg/mL) in the presence or absence (positive control) of each of the isolates (Table 1) at varying multiplicity of infection (MOI) starting from an MOI of 100 to an MOI of 1.56 by performing 1:2 serial dilutions. […] After 4 hours incubation, 3-D epithelial cells containing the NF-κB -luciferase reporter were transferred to a black 96-well plate for analysis of luminescence. […] Luminescence was measured by an EnVision (Perkin Elmer) luminometer.

[1] = 35 hours, absorbance 590 nm, n = 1, cells without values AUC < 50

Molecule	AUC of growth curve, R. gilardii (R. gilardii; [1])	AUC of growth curve, P. aeruginosa (P. aeruginosa; [1])	AUC of growth curve, S. aureus (S. aureus)	AUC of growth curve, G. haemolysans (G. haemolysans; [1])	AUC of growth curve, R. dentocariosa (R. dentocariosa; [1])	AUC of growth curve, R. gilardii (R. gilardii)	AUC of growth curve, P. aeruginosa (P. aeruginosa)	AUC of growth curve, G. haemolysans (G. haemolysans)	AUC of growth curve, R. dentocariosa (R. dentocariosa)	AUC of growth curve, R. mucilaginosa (R. mucilaginosa; [1])	AUC of growth curve, R. mucilaginosa (R. mucilaginosa)	effect on LPS-stimulated NF-κB pathway activation (NF-κB pathway)	AUC of growth curve, S. aureus (S. aureus; [1])
O=CC[C@H](O)[C@H](O)CO [2-Deoxy-D-Ribose]	366.7	529.9	580.2	180.3	376.6	–	–	–	–	–	–	–	–
O=C(CO)[C@@H](O)[C@H](O)[C@@H](O)C(=O)O [5-Keto-D-Gluconic Acid]	–	–	432.1	–	–	423.9	1312.5	122.8	277.0	–	–	–	–
O=C[C@@H](O)[C@H](O)[C@H](O)CO [D-Arabinose]	356.3	763.4	705.0	88.1	305.6	–	–	–	–	–	–	–	–
O=C(CO)[C@@H](O)[C@H](O)[C@H](O)COP(=O)(O)O [D-Fructose-6-Phosphate]	–	783.8	437.8	134.2	87.1	–	–	–	–	127.5	–	–	–
O=C(CO)[C@@H](O)[C@H](O)[C@H](O)CO [D-Fructose]	–	–	992.9	–	–	315.8	413.3	88.8	109.5	–	1111.2	–	–
N[C@H]1C(O)O[C@H](CO)[C@@H](O)[C@@H]1O (stereo partly drawn) [D-Glucosamine]	196.5	840.0	884.6	618.4	200.6	–	–	–	–	–	–	–	–
O=C[C@@H](O)[C@@H](O)[C@H](O)[C@H](O)CO [D-Mannose]	–	495.0	729.5	218.6	106.1	–	–	–	–	1017.6	–	–	–
O=C[C@H](O)[C@H](O)[C@H](O)CO [D-Ribose]	718.5	1450.3	769.0	627.5	431.1	–	–	–	–	371.4	–	–	–
O=C[C@H](O)[C@@H](O)[C@H](O)CO [D-Xylose]	310.4	1218.3	92.4	581.3	257.9	–	–	–	–	157.4	–	–	–
NC(=O)[C@@H](O)[C@@H](O)[C@H](O)[C@@H](O)C=O [Glucuronamide]	53.3	820.8	62.8	97.6	124.2	–	–	–	–	84.9	–	–	–
O=C[C@H](O)[C@@H](O)[C@@H](O)CO [L-Arabinose]	804.7	1269.0	356.7	120.4	314.8	–	–	–	–	195.3	–	–	–
C[C@H](O)[C@@H](O)[C@@H](O)[C@H](O)C=O [L-Fucose]	86.6	701.4	277.6	95.6	478.0	–	–	–	–	155.6	–	–	–
O=C[C@H](O)[C@H](O)[C@@H](O)CO [L-Lyxose]	765.9	1393.5	308.4	430.7	474.8	–	–	–	–	377.5	–	–	–
O=C(O)C[C@H](O)C(=O)O [L-Malic Acid]	202.5	808.2	648.8	73.9	–	–	–	–	–	–	–	–	–
C[C@H](O)[C@H](O)[C@@H](O)[C@@H](O)C=O [L-Rhamnose]	178.6	265.3	423.5	104.6	149.9	–	–	–	–	197.8	–	–	–
CC(=O)C(=O)O [Pyruvic Acid]	215.7	877.9	763.0	552.9	343.3	–	–	–	–	205.5	–	–	–
C/C=C/C=C/C(=O)O [Sorbic Acid]	56.2	–	495.2	90.3	82.4	–	–	–	–	–	–	–	–
CC(=O)O [acetate]	–	–	–	–	–	–	–	–	–	–	–	did not reduce	–
OC[C@H]1O[C@H](O)[C@H](O)[C@@H](O)[C@@H]1O [α-D-Glucose]	115.5	830.2	966.1	1140.8	1288.0	–	–	–	–	1068.2	–	–	–
Pectin	141.7	334.5	–	68.6	683.6	–	–	–	–	199.5	–	–	996.1
